Consider one substance from US20070134793A1, “REDIFFERENTIATION MEDIUM FOR MAKING […] CHONDROCYTE TO BE […] INTO CHONDROCYTE” (priority 2004, published 2007).

In this assay the test system is dedifferentiated chondrocyte (P4, derived from human auricular cartilage). The assay can be described thus: Study of preferable amount of each component in the redifferentiation medium (type II collagen expression). The format is cell-based. Conditions: insulin 50, 5, 0.5 μg/mL compared; BMP-2 200 ng/mL, T3 10^-7 M.

As for insulin, the “content of insulin at which the expression amount of type II collagen was the largest” value is 5 µg/mL.
